Activity calls are given as the source filed them. No cut-off for these calls is given here.
Experiments:
[1] = molecular target: Transcription factor Jun (Mus musculus) (UniProt P05627); test: Induction of AP1-dependent transcriptional activity in mouse JB6 Cl41 cells at 125 uM after 6 hrs; format: cell-based
[2] = molecular target: Cellular tumor antigen p53 (Mus musculus) (UniProt P02340); test: Induction of p53-dependent transcriptional activity in mouse JB6 Cl41 cells at 12.5 uM after 6 hrs; format: cell-based
Chain of Cellular tumor antigen p53 (Mus musculus) (P02340 whole entry): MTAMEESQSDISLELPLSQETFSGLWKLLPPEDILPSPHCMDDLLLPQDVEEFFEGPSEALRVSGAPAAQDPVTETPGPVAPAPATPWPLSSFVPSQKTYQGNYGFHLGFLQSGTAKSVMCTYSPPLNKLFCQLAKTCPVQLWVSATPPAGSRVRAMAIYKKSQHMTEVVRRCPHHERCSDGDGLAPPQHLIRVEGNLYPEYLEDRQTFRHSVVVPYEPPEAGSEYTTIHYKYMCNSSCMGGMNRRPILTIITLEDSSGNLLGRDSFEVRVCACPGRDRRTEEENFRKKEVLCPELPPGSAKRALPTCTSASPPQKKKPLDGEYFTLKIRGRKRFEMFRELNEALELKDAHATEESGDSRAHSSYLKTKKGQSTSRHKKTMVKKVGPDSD

JB6 Cl41 = test: Induction of NF-kappaB-dependent transcriptional activity in mouse JB6 Cl41 cells at 125 uM after 6 hrs; format: cell-based
HeLa = test: Cytotoxicity against human HeLa cells by MTS assay; format: functional, cell-based
[3] = Cytotoxicity against mouse promotion-sensitive JB6 Cl41 cells by MTS assay; format: cell-based
[4] = Cytotoxicity against mouse promotion-sensitive JB6 Cl41 cells up to 50 uM by MTS assay; format: cell-based

Chain of Transcription factor Jun (Mus musculus) (P05627 whole entry): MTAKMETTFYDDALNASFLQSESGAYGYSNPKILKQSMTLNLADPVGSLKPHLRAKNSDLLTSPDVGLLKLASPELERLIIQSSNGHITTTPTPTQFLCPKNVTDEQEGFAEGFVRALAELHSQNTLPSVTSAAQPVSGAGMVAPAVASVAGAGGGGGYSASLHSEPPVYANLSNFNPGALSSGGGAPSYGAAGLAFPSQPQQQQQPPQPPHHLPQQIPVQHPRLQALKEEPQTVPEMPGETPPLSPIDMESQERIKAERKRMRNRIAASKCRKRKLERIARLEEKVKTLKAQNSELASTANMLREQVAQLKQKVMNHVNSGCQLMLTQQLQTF

Row | fold change (FC) [1] | fold change (FC) [2] | SMILES | Activity (JB6 Cl41) | IC50 (HeLa) [µM] | IC50 [3] [µM] | Activity [4]
1 | 1.7 | 1.3 | CC(C)CCC[C@@](C)(O)[C@H]1[C@@H](O)C[C@H]2[C@@H]3C[C@H](O[C@@H]4O[C@H](C)[C@@H](O)[C@H](O[C@@H]5O[C@H](C)[C@@H](O[C@@H]6O[C@H](C)[C@@H](O)[C@H](O)[C@H]6O[C@@H]6O[C@H](C)[C@H](O)[C@H](O)[C@H]6O)[C@H](O)[C@H]5O[C@@H]5O[C@H](C)[C@@H](O)[C@H](O)[C@H]5O)[C@H]4O)[C@H]4C[C@@H](OS(=O)(=O)O)CC[C@]4(C)C3=CC[C@@]21C [ARCHASTEROSIDE B] | inactive | 14 | 18 | –
2 | – | – | CC[C@@H](C(C)C)[C@@H]1O[C@H]1[C@@](C)(O)[C@H]1[C@@H](O)C[C@H]2[C@@H]3C[C@H](O[C@@H]4O[C@H](CO)[C@@H](O)[C@H](O[C@@H]5O[C@H](C)[C@@H](O[C@@H]6O[C@H](C)[C@@H](O)[C@H](O)[C@H]6O[C@@H]6O[C@H](C)[C@H](O)[C@H](O)[C@H]6O)[C@H](O)[C@H]5O[C@@H]5O[C@H](C)[C@@H](O)[C@H](O)[C@H]5O)[C@H]4O)[C@H]4C[C@@H](OS(=O)(=O)O)CC[C@]4(C)C3=CC[C@]12C [ARCHASTEROSIDE A] | – | 24 | 37 | –
3 | – | – | CC(C)[C@H](C)[C@@H]1O[C@H]1[C@@](C)(O)[C@H]1[C@@H](O)C[C@H]2[C@@H]3C[C@H](O[C@@H]4O[C@H](CO)[C@@H](O)[C@H](O[C@@H]5O[C@H](C)[C@@H](O[C@@H]6O[C@H](C)[C@@H](O)[C@H](O)[C@H]6O[C@@H]6O[C@H](C)[C@H](O)[C@H](O)[C@H]6O)[C@H](O)[C@H]5O[C@@H]5O[C@H](C)[C@@H](O)[C@H](O)[C@H]5O)[C@H]4O)[C@H]4C[C@@H](OS(=O)(=O)[O-])CC[C@]4(C)C3=CC[C@]12C.[Na+] [REGULAROSIDE A] | – | 110 | – | Non-toxic
